According to the NIST ThermoML archive (doi:10.1021/je9000697):
± gives the expanded uncertainty stated by the source.

Assay: wn = mass fraction of the nth substance listed
Settings: 101 kPa, Liquid

Q: Which results are given for `OCCO` [1,2-ethanediol] + O?
A: mass density (298.15 K, w1 = 0.1): 1009.49 ± 0.66 kg/m3; viscosity (298.15 K, w1 = 0.1): 1.152 ± 0.028 mPa·s; mass density (298.15 K, w1 = 0.2): 1022.45 ± 0.66 kg/m3; viscosity (298.15 K, w1 = 0.2): 1.469 ± 0.036 mPa·s; mass density (298.15 K, w1 = 0.3): 1035.7 ± 0.67 kg/m3; viscosity (298.15 K, w1 = 0.3): 1.903 ± 0.045 mPa·s; viscosity (298.15 K, w1 = 1): 18.64 ± 0.38 mPa·s; mass density (303.15 K, w1 = 0.1): 1007.62 ± 0.68 kg/m3; viscosity (303.15 K, w1 = 0.1): 1.017 ± 0.026 mPa·s; mass density (303.15 K, w1 = 0.2): 1020.98 ± 0.69 kg/m3; viscosity (303.15 K, w1 = 0.2): 1.306 ± 0.032 mPa·s; mass density (303.15 K, w1 = 0.3): 1034.05 ± 0.71 kg/m3; viscosity (303.15 K, w1 = 0.3): 1.657 ± 0.04 mPa·s; mass density (303.15 K, w1 = 1): 1104.47 ± 1 kg/m3; viscosity (303.15 K, w1 = 1): 13.86 ± 0.28 mPa·s; mass density (308.15 K, w1 = 0.1): 1005.57 ± 0.68 kg/m3; viscosity (308.15 K, w1 = 0.1): 0.9078 ± 0.023 mPa·s; mass density (308.15 K, w1 = 0.2): 1018.5 ± 0.72 kg/m3; viscosity (308.15 K, w1 = 0.2): 1.149 ± 0.028 mPa·s; mass density (308.15 K, w1 = 0.3): 1031.66 ± 0.75 kg/m3; viscosity (308.15 K, w1 = 0.3): 1.462 ± 0.035 mPa·s; mass density (308.15 K, w1 = 1): 1100.13 ± 0.94 kg/m3; viscosity (308.15 K, w1 = 1): 11.66 ± 0.23 mPa·s; mass density (318.15 K, w1 = 0.1): 1002.73 ± 0.7 kg/m3; viscosity (318.15 K, w1 = 0.1): 0.7381 ± 0.019 mPa·s; mass density (318.15 K, w1 = 0.2): 1014.28 ± 0.73 kg/m3; viscosity (318.15 K, w1 = 0.2): 0.9243 ± 0.023 mPa·s; mass density (318.15 K, w1 = 0.3): 1026.73 ± 0.77 kg/m3; viscosity (318.15 K, w1 = 0.3): 1.164 ± 0.029 mPa·s; mass density (318.15 K, w1 = 1): 1092.15 ± 0.96 kg/m3; viscosity (318.15 K, w1 = 1): 7.453 ± 0.17 mPa·s
